Test results from patent publication US8492413B2, “Pharmaceutical combination of 5-fluorouracil and derivate of 1,4-dihydropyridine and its use in the treatment of cancer” (priority 2009, dated 2013).
Structures can show the parent of a compound that is named as a salt. Where two headings read alike, the source gives them in different places.

Tests used:
[1] = tested on: leukaemia P388, murine sarcoma 37 and Walker's carcinosarcome; settings: cited from earlier work
[2] = tested on: human breast cancer cells MDA-MB-435s; assay: Cell viability of MDA-MB-435s cells, crystal violet staining assay, 72 h exposure; type: cell-based; settings: for IC50: 72 h, read-out: IC50 (concentration causing 50% cell viability decrease), compound alone
Protocol: Cell viability was measured using modified crystal violet staining (CVS) assay as described in [[…] et al., 1985]. In brief, cells were fixed with 1% glutaraldehyde for 15 minutes, washed with water and stained with 0.05% crystal violet for 15 minutes at room temperature. After removal of residual crystal violet by washing with tap water the crystal violet stain was eluted with ethanol sodium citrate (1:1) buffer, and absorbance at 540 nm was measured using a microplate reader. The IC50 values, corresponding to concentrations of compounds that cause 50% cell viability decrease, were calculated for individual compounds and their combinations and are summarized in Table 1.

CC1=C(C(=O)OCC(=O)[O-])CC(C(=O)OCC(=O)[O-])=C(C)N1.[Na+].[Na+] [Carbatone, Disodium salt of carboxylate-methyl ester of 2,6-dimethyl-1,4-dihydropyridine-3,5-dicarboxylic acid]
Effect on cytostatic activity of cyclophosphane, 5-fluorouracil and arabisosyl cytosine ([1]; against leukaemia P388, murine sarcoma 37 and Walker's carcinosarcome): potentiates the cytostatic activity | Antitumour activity of the compound itself ([1]; alone): exhibited no antitumour activity | Effect on cyclophosphane toxicity ([1]; mice): decreasing the cyclophosphane toxicity | Effect on the cytotoxic effect of 5-FU (in words) ([2]; combined treatment with 5-FU, MDA-MB-435s): synergistically potentiates the cytotoxic effect of 5-FU | IC50 ([2]; single agent, MDA-MB-435s): 1320 µM

O=c1[nH]cc(F)c(=O)[nH]1 [Example 5-FU, 5-Fluorouracil]
IC50 ([2]; Homo sapiens, single agent, MDA-MB-435s): 30 µM

CC1=C(C(=O)OCC(=O)O)C(C)C(C(=O)OCC(=O)O)=C(C)N1 [disodium salt of 2,4,6-trimethyl-1,4-dihydropyridine-3,5-bis-carbonyloxyacetic acid]
IC50 ([2]; Homo sapiens, MDA-MB-435S): > 2690 µM

CCC1C(C(=O)OCC(=O)O)=C(C)NC(C)=C1C(=O)OCC(=O)O [disodium salt of 4-ethyl-2,6-dimethyl-1,4-dihydropyridine-3,5-bis-carbonyloxyacetic acid]
IC50 ([2]; Homo sapiens, MDA-MB-435S): > 2100 µM
